Measured values as given in US20090074815A1, “Immunomodulator Compounds as Vaccine Enhancers” (SCICLONE PHARMACEUTICALS, INC., priority 2005, published 2009).
Read-outs that look alike come from different tables or passages of the source. Marks after values point to notes of the source that are not given here.

What was measured:
[1] = test system: IL-2 production by ConA-stimulated thymic cells; assay: IL-2 production by ConA-stimulated thymic cells (IL-2-dependent CTLL-2 bioassay); type: in vivo, mice
Source text: Considering that significant enhancement of proliferation by SCV-07 might be due to its influence on IL-2 production, IL-2 activity was studied with the IL-2-dependent CTLL-2 line.

[2] = test system: splenocytes; assay: OvA-induced proliferation of splenocytes of OvA-immunized mice; type: in vivo; conditions: for Proliferation of splenocytes, Spontaneous, cpm, M ± SD / Proliferation of splenocytes, SI / Proliferation of splenocytes, cpm, M ± SD: OvA/FA
Experimental: Assessment of Mitogen- and Antigen-Induced Proliferation: […] Antigen-specific proliferation was studied by stimulating thymocytes and splenoctyes in vitro with different concentrations of OvA for 96 h. Twenty (20) to twenty-four (24) hours prior to completion of incubation, 3H-labeled thymidine (5 μCi/ml) was added to the cells. The cells were then transferred to fiberglass filters with a Titertek® semi-automatic cell harvester. Thymidine uptake was measured using a RackBeta 1217 (Wallac) liquid scintillation β-counter. For quantitative analysis of proliferation, the stimulation index (SI) was calculated as a ratio of the intensity of label inclusion in the stimulated cells to that in non-stimulated cells.

[3] = test system: HBsAg; type: in vivo, human; conditions: for Antibodies to HBsAg not detected, % / Antibodies to HBsAg not detected, Abs / Protective titer against HBsAg (>10 mMU/mL), % / Protective titer against HBsAg (>10 mMU/mL), Abs: one month after the end of vaccination; for concentration of antibodies to HBsAg in the blood: one month after immunization
[4] = test system: IL-10 production by OvA-stimulated splenocytes; assay: OvA-stimulated production of IL-10 by splenocytes of OvA-immunized mice; conditions: Mus musculus, Splenocyte, po; for activity at 0.0001 mg/kg: 0.1 μg/kg per os; for activity at 0.001 mg/kg: 1.0 μg/kg per os; for activity at 0.01 mg/kg: 10.0 μg/kg per os
Experimental: The OvA was administered subcutaneously to the crest in a volume of 200 μl. Mice were immunized on day 1 with OvA in complete Freund's adjuvant (CFA; Sigma) and on day 15 with the antigen in incomplete Freund's adjuvant (IFA; Sigma). The immune response was analyzed on day 29. Mice were also immunized with 10 μg/mouse of OvA using Alum as an adjuvant.
Thymuses and spleens from mice of each treatment group were pooled, and then minced with scissors. The minced tissues were suspended in sterile PBS to form cell suspensions, filtered through a double gauze layer and centrifuged. Cells were washed twice with PBS, re-suspended in RPMI-1640 (Sigma) with 2.0 mM of L-glutamine, 50 μM of mercaptoethanol, and 10 μg/ml of gentamycin (complete medium); and cell counts were made. (The splenocyte suspension was washed with a 0.86% solution of NH4Cl to pre-lyse erthrocytes.)
Assessment of Mitogen- and Antigen-Induced Production of Cytokines: Thymic cells (1×10^6/well) in complete medium with 2% FCS were stimulated with ConA (0, 1, and 2 μg/ml). Splenocytes (1×10^6/well) in complete medium with 5% FCS were stimulated with ConA (0, 1, and 5 μg/ml) and with OvA (0-100 μg/ml). […] Supernatants from OvA-stimulated cultures were collected after 72 hours. Supernatants from both cultures were frozen, and kept at 20° C. Concentrations of IL-2, IL-4, IL-10, IL-12R40 and IFNγ in the supernatants were determined by solid-phase EIA with EIA Expansion Kits, available from BD Biosciences (formerly Pharmingen), in accordance with the manufacturer's instructions.

[5] = 10.0 μg/kg per os, OvA 10 μg/ml
[6] = 10.0 μg/kg per os, OvA 50 μg/ml
[7] = read-out: Production of IL-10 by splenocytes, % (% of control), OvA/Alum, OvA 0 μg/ml
[8] = read-out: Production of IL-10 by splenocytes, % (% of control), OvA/Alum, OvA 10 μg/ml
[9] = read-out: Production of IL-10 by splenocytes, % (% of control), OvA/Alum, OvA 25 μg/ml
[10] = read-out: Production of IL-10 by splenocytes, % (% of control), OvA/Alum, OvA 50 μg/ml
[11] = read-out: Production of IL-10 by splenocytes, % (% of control), OvA/Alum, OvA 100 μg/ml
[12] = read-out: Production of IL-10 by splenocytes, % (% of control), OvA/FA, OvA 0 μg/ml
[13] = read-out: Production of IL-10 by splenocytes, % (% of control), OvA/FA, OvA 10 μg/ml
[14] = read-out: Production of IL-10 by splenocytes, % (% of control), OvA/FA, OvA 25 μg/ml

N[C@H](CCC(=O)N[C@@H](Cc1c[nH]c2ccccc12)C(=O)O)C(=O)O [SCV-07, γ-D-glutamyl-L-tryptophan]
IL-2 production (U/ml), M ± SD ([1]; ConA 1 μg/ml, 0.01 μg/kg per os): 0.00 ± 0.00 U/ml | IL-2 production (U/ml), M ± SD ([1]; ConA 1 μg/ml, 0.1 μg/kg i/p): 0.25 ± 0.08 U/ml | IL-2 production (U/ml), M ± SD ([1]; ConA 1 μg/ml, 0.1 μg/kg per os): 0.10 ± 0.13 U/ml | IL-2 production (U/ml), M ± SD ([1]; ConA 1 μg/ml, 1.0 μg/kg i/p): 0.92 ± 0.06 U/ml | IL-2 production (U/ml), M ± SD ([1]; ConA 1 μg/ml, 1.0 μg/kg per os): 1.06 ± 0.37 U/ml | IL-2 production (U/ml), M ± SD ([1]; ConA 1 μg/ml, 10.0 μg/kg per os): 0.25 ± 0.12 U/ml | IL-2 production (U/ml), M ± SD ([1]; ConA 1 μg/ml, 100.0 μg/kg per os): 0.31 ± 0.15 U/ml | IL-2 production (U/ml), M ± SD ([1]; ConA 2 μg/ml, 0.01 μg/kg per os): 0.44 ± 0.11 U/ml | IL-2 production (U/ml), M ± SD ([1]; ConA 2 μg/ml, 0.1 μg/kg i/p): 1.40 ± 0.38 U/ml | IL-2 production (U/ml), M ± SD ([1]; ConA 2 μg/ml, 0.1 μg/kg per os): 1.00 ± 0.13 U/ml | IL-2 production (U/ml), M ± SD ([1]; ConA 2 μg/ml, 1.0 μg/kg i/p): 1.60 ± 0.15 U/ml | IL-2 production (U/ml), M ± SD ([1]; ConA 2 μg/ml, 1.0 μg/kg per os): 3.31 ± 0.01 U/ml | IL-2 production (U/ml), M ± SD ([1]; ConA 2 μg/ml, 10.0 μg/kg per os): 0.39 ± 0.12 U/ml | IL-2 production (U/ml), M ± SD ([1]; ConA 2 μg/ml, 100.0 μg/kg per os): 1.19 ± 0.30 U/ml | proliferation of splenocytes versus control group ([2]; OvA/Alum, data not shown): No significant differences | Proliferation of splenocytes, Spontaneous, cpm, M ± SD ([2]; 0.1 μg/kg i/p): 10726 ± 1947 cpm | Proliferation of splenocytes, SI ([2]; 0.1 μg/kg i/p, OvA 10 μg/ml): 1.09 | Proliferation of splenocytes, cpm, M ± SD ([2]; 0.1 μg/kg i/p, OvA 10 μg/ml): 11683 ± 2285 cpm | Proliferation of splenocytes, SI ([2]; 0.1 μg/kg i/p, OvA 50 μg/ml): 1.32 | Proliferation of splenocytes, cpm, M ± SD ([2]; 0.1 μg/kg i/p, OvA 50 μg/ml): 14195 ± 3304 cpm | Proliferation of splenocytes, Spontaneous, cpm, M ± SD ([2]; 0.1 μg/kg per os): 8786 ± 1259 cpm | Proliferation of splenocytes, SI ([2]; 0.1 μg/kg per os, OvA 10 μg/ml): 1.29 | Proliferation of splenocytes, cpm, M ± SD ([2]; 0.1 μg/kg per os, OvA 10 μg/ml): 11304 ± 1317 cpm | Proliferation of splenocytes, SI ([2]; 0.1 μg/kg per os, OvA 50 μg/ml): 1.36 | Proliferation of splenocytes, cpm, M ± SD ([2]; 0.1 μg/kg per os, OvA 50 μg/ml): 11923 ± 1623 cpm | Proliferation of splenocytes, Spontaneous, cpm, M ± SD ([2]; 1.0 μg/kg i/p): 9760 ± 1650 cpm | Proliferation of splenocytes, SI ([2]; 1.0 μg/kg i/p, OvA 10 μg/ml): 1.05 | Proliferation of splenocytes, cpm, M ± SD ([2]; 1.0 μg/kg i/p, OvA 10 μg/ml): 10260 ± 2808 cpm | Proliferation of splenocytes, SI ([2]; 1.0 μg/kg i/p, OvA 50 μg/ml): 1.67 | Proliferation of splenocytes, cpm, M ± SD ([2]; 1.0 μg/kg i/p, OvA 50 μg/ml): 16313 ± 1057 cpm | Proliferation of splenocytes, Spontaneous, cpm, M ± SD ([2]; 1.0 μg/kg per os): 7013 ± 1698 cpm | Proliferation of splenocytes, SI ([2]; 1.0 μg/kg per os, OvA 10 μg/ml): 1.26 | Proliferation of splenocytes, cpm, M ± SD ([2]; 1.0 μg/kg per os, OvA 10 μg/ml): 8864 ± 2675 cpm | Proliferation of splenocytes, SI ([2]; 1.0 μg/kg per os, OvA 50 μg/ml): 1.49 | Proliferation of splenocytes, cpm, M ± SD ([2]; 1.0 μg/kg per os, OvA 50 μg/ml): 10457 ± 1740 cpm | Proliferation of splenocytes, Spontaneous, cpm, M ± SD ([2]; 10.0 μg/kg per os): 10665 ± 887 cpm | Proliferation of splenocytes, SI [2, 5]: 1.27 | Proliferation of splenocytes, cpm, M ± SD [2, 5]: 13585 ± 1102 cpm | Proliferation of splenocytes, SI [2, 6]: 1.21 | Proliferation of splenocytes, cpm, M ± SD [2, 6]: 12903 ± 881 cpm | Antibodies to HBsAg not detected, % ([3]; Group 2, SCV-07, n = 32): 3.1** % | Antibodies to HBsAg not detected, Abs ([3]; Group 2, SCV-07, n = 32): 1 | Protective titer against HBsAg (>10 mMU/mL), % ([3]; Group 2, SCV-07, n = 32): 96.9% | Protective titer against HBsAg (>10 mMU/mL), Abs ([3]; Group 2, SCV-07, n = 32): 31 | Antibodies to HBsAg not detected, % ([3]; Group 3, healthy, n = 33): 6.1* % | Antibodies to HBsAg not detected, Abs ([3]; Group 3, healthy, n = 33): 2 | Protective titer against HBsAg (>10 mMU/mL), % ([3]; Group 3, healthy, n = 33): 93.9% | Protective titer against HBsAg (>10 mMU/mL), Abs ([3]; Group 3, healthy, n = 33): 31 | concentration of antibodies to HBsAg in the blood ([3]; healthy subjects (Group III)): 253.6 MU/L | concentration of antibodies to HBsAg in the blood ([3]; immunodeficient patients who received SCV-07 at the time of vaccination): 263.3 MU/L | activity at 0.0001 mg/kg [4, 7]: 100% | activity at 0.0001 mg/kg [4, 8]: 118% | activity at 0.0001 mg/kg [4, 9]: 105% | activity at 0.0001 mg/kg [4, 10]: 132% | activity at 0.0001 mg/kg [4, 11]: 129% | activity at 0.001 mg/kg [4, 7]: 100% | activity at 0.001 mg/kg [4, 8]: 128% | activity at 0.001 mg/kg [4, 9]: 112% | activity at 0.001 mg/kg [4, 10]: 110% | activity at 0.001 mg/kg [4, 11]: 109% | activity at 0.01 mg/kg [4, 7]: 100% | activity at 0.01 mg/kg [4, 8]: 138% | activity at 0.01 mg/kg [4, 9]: 156% | activity at 0.01 mg/kg [4, 10]: 197% | activity at 0.01 mg/kg [4, 11]: 218% | activity at 0.0001 mg/kg [4, 12]: 100% | activity at 0.0001 mg/kg [4, 13]: 136% | activity at 0.0001 mg/kg [4, 14]: 210% | activity at 0.0001 mg/kg ([4]; read-out: Production of IL-10 by splenocytes, % (% of control), OvA/FA, OvA 50 μg/ml): 248% | activity at 0.0001 mg/kg ([4]; read-out: Production of IL-10 by splenocytes, % (% of control), OvA/FA, OvA 100 μg/ml): 270% | activity at 0.001 mg/kg [4, 12]: 100% | activity at 0.001 mg/kg [4, 13]: 234% | activity at 0.001 mg/kg [4, 14]: 241%
